Measurements: patent US9624243B2, “Heterocyclic compounds and methods of their use” (Novartis AG, priority 2012, dated 2017)

Columns and labels:
[1] = target: AT2 receptor (Homo sapiens (Human), UniProt P50052); assay: AT2 Receptor Binding; settings: HEK293 AT2 receptor transient cell membranes, [125I]-CGP42112A
Experimental: 1. Trypsin-EDTA (for Preparation of 100 mL)
• Dissolve trypsin in 2% EDTA and PBS completely; sterilize the solution by passing through a […] membrane filter; store at 4° C.
2. DMEM Medium (for Preparation of 1 L) • The powder was dissolved into 950 mL of distilled water with gentle stirring until the solution becomes clear. • Add. NaHCO3 1.176 g for DMEM medium. • Adjust pH of medium to 0.2˜0.3 below final working pH using 1 M NaOH or 1 M • HCl. Add slowly with stirring. • Dilute to 1 liter with ddH2O. • Sterilize the medium immediately by filtration. • Store at 4° C.
3. TE Buffer • 20 mM Tris-HCl, pH 7.4, • 5 mM EDTA
4. Binding Assay Buffer • 50 mM Hepes, pH 7.4 • 5 mM MgCl2 • 1 mM CaCl2 • 0.2% BSA
5. Wash Buffer • 50 mM Hepes, pH 7.4 Procedures for HEK293AT2 Receptor Transient Cell Transfection • Cells were plated into 150 mm dish at 50% density for transient transfection. Cells were ready for transfection after overnight incubation (the confluence reaches around 80%). • 75 μL Lipofectamine™2000 diluted in 6.25 mL OptiMEM I Reduced Serum Medium, was mixed gently, and incubated at room temperature for 5 minutes. 50 μg expression plasmid DNA diluted in 6.25 mL OptiMEM I Reduced Serum Medium without serum was mixed gently. • After the 5 minute incubation, the diluted DNA was combined with the diluted Lipofectamine™2000 (total volume is 12.5 mL). The mixture was mixed gently and incubated for 30 minutes at room temperature to allow the DNA-Lipofectamine™2000 complexes to form. • The 12.5 mL DNA-Lipofectamine™2000 complexes were added into the 150 mm dish and mixed gently by rocking the dish back and forth. • The cells were incubated at 37° C. with 5% CO2 for 48 hours. Cells were collected and stored frozen at −80° C. Procedures for HEK293AT2 Receptor Cell Membrane Preparation • Frozen HEK293AT2 receptor (transient transfected) cells were homogenized in ice cold TE buffer for 10s. • The homogenate was centrifuged at 25,000 g for 30 minutes. • The pellet was resuspended in ice cold tissue buffer. • Protein concentrations were determined using Bradford assay method with BSA as standard. • The membrane protein was frozen under −80° C. Compound Preparation
Solutions of all compounds were prepared bymicroplate liquid handling equipment such as Janus or Precision 2000. Compounds, dissolved in DMSO were stored in a Freezer. Compounds were prepared from 30 mM in 100% DMSO.
Step 1: Dose Plate Preparation (96 Well Plate)
• Add the 3 μL [30 mM] compound stock to column 1 on the plate. • Add 15 μL of 100% DMSO to column 1. • Add 10.81 μL of 100% DMSO to column 2-12. • Transfer 5 μL from column 1 into column 2 (half log dilution). • Transfer 5 μL from column 2 into column 3 (half log dilution). • Transfer 5 μL from column 3 into column 4 (half log dilution). • Transfer 5 μL from column 4 into column 5 (half log dilution). • Transfer 5 μL from column 5 into column 6 (half log dilution). • Transfer 5 μL from column 6 into column 7 (half log dilution). • Transfer 5 μL from column 7 into column 8 (half log dilution). • Transfer 5 μL from column 8 into column 9 (half log dilution). • Transfer 5 μL from column 9 into column 10 (half log dilution) • Transfer 5 μL from column 10 into column 11 (half log dilution) • Transfer 5 μL from column 11 into column 12 (half log dilution).
All the compounds were diluted using Precision 2000 microplate liquid handling equipment. The top concentration of compound was 5 mM with 100% DMSO.
Step 2: Working Plate Preparation (96 Well Plate)
• Compounds were diluted 50-fold with buffer. • 49 μL buffer was added to the well of 96 well plate. • 1 μL compound solution from dose plate was transferred to the corresponding well of working plate. • The top concentration of compound was 100 μM with 2% DMSO. Step 3: Assay Plate Preparation (96 Well Plate)
15 μL of compound solution was transferred from each well of working plate to the well of assay plate by Janus.

[2] = target: AT1 receptor (Homo sapiens (Human), UniProt P30556); assay: AT1 Receptor Binding; settings: HEK293/AT1 receptor transient cell membranes, [125I]-Sar1-Ile8-Angiotensin II; top concentration tested 10 μM
AT1 receptor, sequence (P30556 whole entry, species assumed): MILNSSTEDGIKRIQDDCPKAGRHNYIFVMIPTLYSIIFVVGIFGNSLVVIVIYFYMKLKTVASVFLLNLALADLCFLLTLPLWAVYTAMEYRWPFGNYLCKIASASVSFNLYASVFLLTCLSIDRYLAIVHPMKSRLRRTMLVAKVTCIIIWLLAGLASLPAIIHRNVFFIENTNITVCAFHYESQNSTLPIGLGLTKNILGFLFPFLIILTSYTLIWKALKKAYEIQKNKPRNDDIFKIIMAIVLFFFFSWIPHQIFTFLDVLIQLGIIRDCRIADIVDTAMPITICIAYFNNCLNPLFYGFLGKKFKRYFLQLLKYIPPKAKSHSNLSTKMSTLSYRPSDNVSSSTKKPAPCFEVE
Description: The same media, solutions, cell procedures and compound preparation was used as for Biological Example 1 but using HEK293/AT1 Receptor Transient Cells.

[3] = system: NG108-15 neurite cells; assay: AT2 Receptor Neurite Outgrowth Assay; assay type: cell-based; settings: NG108-15 cells, in the presence of angiotensin II 0.1 μM, compound 0.003-10 μM
Experimental: The general methodology of Wallinder (2008) and references cited therein was used to assess the effect of the compounds of the present invention on neurite outgrowth. The assay was adapted for high content screening.
EMA1087 is a known AT2 receptor agonist described as “compound 21” in Wan et al. 2004. PD-123,319 is a known, commercially available AT2 receptor antagonist. The results were analyzed by immunofluorescence quantitative analysis. Neurite outgrowth was quantified with neurite average length using Cellomics software. Results are expressed as the mean±SEM, each conducted in triplicate. Statistical significance, compared with Ang II control: *p<0.05, **p<0.01, and ***p<0.001. NS: no significant difference. ND: not determined. FIGS. 1 to 5 show neurite outgrowth was inhibited by the AT2 receptor antagonists, PD-126,055 and compounds 6, 15, 21 and 28.

AT2 receptor, sequence (P50052 whole entry, species assumed): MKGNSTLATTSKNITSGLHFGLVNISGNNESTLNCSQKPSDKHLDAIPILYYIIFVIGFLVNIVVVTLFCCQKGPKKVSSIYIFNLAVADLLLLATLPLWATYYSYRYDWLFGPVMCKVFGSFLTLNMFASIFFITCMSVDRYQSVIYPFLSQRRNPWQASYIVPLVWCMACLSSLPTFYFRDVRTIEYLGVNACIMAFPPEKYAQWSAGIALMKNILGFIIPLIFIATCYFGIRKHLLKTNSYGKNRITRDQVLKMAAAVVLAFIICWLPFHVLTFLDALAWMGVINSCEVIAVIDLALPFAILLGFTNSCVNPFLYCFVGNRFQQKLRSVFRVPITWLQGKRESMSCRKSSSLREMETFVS

| Structure (SMILES) | IC50 [1] | IC50 [2] | Ki [2] | neurite outgrowth (neurite average length) [3] |
| --- | --- | --- | --- | --- |
| CN(CCCc1ccccc1)[C@H]1C[C@@H](C(=O)O)N(C(=O)C(c2ccccc2)c2ccccc2)C1 [Compound 21, (2S,4S)-1-(2,2-diphenylacetyl)-4-(methyl(3-phenylpropyl)amino)pyrrolidine-2-carboxylic acid] | 62.1 nM | > 10000 nM | > 10000 nM | inhibited |
| O=C(O)[C@@H]1C[C@H](N2CCOC[C@@H]2Cc2ccccc2)CN1C(=O)C(c1ccccc1)c1ccccc1 [Compound 28, (2S,4S)-4-((S)-3-benzylmorpholino)-1-(2,2-diphenylacetyl)pyrrolidine-2-carboxylic acid] | 86.9 nM | – | – | inhibited |
| CN(CCOc1ccc(F)cc1)[C@H]1C[C@@H](C(=O)O)N(C(=O)C(c2ccccc2)c2ccccc2)C1 [Compound 126] | 20.5 nM | – | – | – |
| O=C(O)[C@@H]1C[C@H](SCCCc2ccc(F)cc2)CN1C(=O)C(c1ccccc1)c1ccccc1 [Compound 133, (2S,4S)-1-(2,2-diphenylacetyl)-4((3-(4-fluorophenyl)propyl)thio)pyrrolidine-2-carboxylic acid] | 1740 nM | – | – | – |
| O=C(O)[C@@H]1C[C@H](S(=O)(=O)CCCc2ccc(F)cc2)CN1C(=O)C(c1ccccc1)c1ccccc1 [Compound 134, (2S,4S)-1-(2,2-diphenylacetyl)-4((3-(4-fluorophenyl)propyl)sulfonyl)pyrrolidine-2-carboxylic acid] | 954 nM | – | – | – |
| CS(=O)(=O)NC(=O)[C@@H]1C[C@H](OCCCc2ccccc2)CN1C(=O)C(c1ccccc1)c1ccccc1 [Compound 135, (2S,4S)-1-(2,2-diphenylacetyl)-N-(methylsulfonyl)-4-(phenylpropoxy)pyrrolidine-2-carboxamide] | 240 nM | – | – | – |
| O=C(O)[C@@H]1C=C(c2sccc2-c2ccccc2)CN1C(=O)C(c1ccccc1)c1ccccc1 [Compound 139, (S)-1-(2,2-diphenylacetyl)-4-(3-phenylthiophen-2-yl)-2,5-dihydro-1H-pyrrole-2-carboxylic acid] | 2530 nM | – | – | – |
| O=C(O)[C@@H]1C=C(C#CCCc2ccccc2)CN1C(=O)C(c1ccccc1)c1ccccc1 [Compound 140, (S)-1-(2,2-diphenylacetyl)-4-(4-phenylbut-1-yn-1-yl)-2,5-dihydro-1H-pyrrole-2-carboxylic acid] | 674 nM | – | – | – |
| COc1ccc2c(c1OCc1ccccc1)C[C@@H](C(=O)O)N(C(=O)C(c1ccccc1)c1ccccc1)C2 [PD-126,055, reference compound] | – | > 10000 nM | > 10000 nM | inhibited |

More lines, main results first:

| IC50 [1] | Structure (SMILES) | IC50 [2] | Ki [2] | neurite outgrowth (neurite average length) [3] |
| --- | --- | --- | --- | --- |
| 57.7 nM | O=C(O)[C@@H]1C[C@H](CSCc2ccccc2)CN1C(=O)C(c1ccccc1)c1ccccc1 [Compound 121, (2S,4S)-4-((benzylthio)methyl)-1-(2,2-diphenylacetyl)pyrrolidine-2-carboxylic acid] | – | – | – |
| 143 nM | O=C(O)[C@@H]1C[C@H](CSc2ccccc2)CN1C(=O)C(c1ccccc1)c1ccccc1 [Compound 122, (2S,4S)-1-(2,2-diphenylacetyl)-4-((phenylthio)methyl)pyrrolidine-2-carboxylic acid] | – | – | – |
| 363 nM | O=C(O)[C@@H]1C[C@H](SCCCc2ccccc2)CN1C(=O)C(c1ccccc1)c1ccccc1 [Compound 124, (2S,4S)-1-(2,2-diphenylacetyl)-4-((3-phenylpropyl)thio)-pyrrolidine-2-carboxylic acid] | – | – | – |
| 1240 nM | O=C(O)[C@@H]1C[C@H](S(=O)(=O)CCCc2ccccc2)CN1C(=O)C(c1ccccc1)c1ccccc1 [Compound 125, (2S,4S)-1-(2,2-diphenylacetyl)-4-((3-phenylpropyl)-sulfonyl)pyrrolidine-2-carboxylic acid] | – | – | – |
| 652 nM | O=C(O)[C@@H]1C[C@H](SCCc2ccccc2)CN1C(=O)C(c1ccccc1)c1ccccc1 [Compound 131, (2S,4S)-1-(2,2-diphenylacetyl)-4-(phenethylthio)pyrrolidine-2-carboxylic acid] | – | – | – |
